We go through twelve molecules from patent US20250145585A1, “HETEROCYCLIC INHIBITORS OF IGF-1R FOR TREATMENT OF DISEASE” (HORIZON THERAPEUTICS IRELAND DAC, priority 2023, published 2025).

Where only a bound is given, the exact number is not on record here.

This test has as its target T1, IGF-1R (Homo sapiens, UniProt P08069).
T1 construct: expressed in transfected cells
Briefly: Example B-1: IGF-1R Assay (PC3 cells stimulated with IGF1, AlphaLISA on cell lysates). The settings on record: compound two hours, IGF1 200 ng/mL for 30 min, read-out: IC50, Biological Activity against IGF-1R (Table B1). It is filed as cell-based. The method, then:
50K PC3 cells were seeded on day 1 in 50 μL of media in 96-well plate and incubated overnight at 37° C., 5% CO2. On day 2, all cells were expected to be at 80-90% confluency. Cells were starved for two hours by changing the media to 90 μL of EMEM serum-free media and incubated for 2 hours. Next, cells were treated with 10 μL of 10× concentrated and 3× serially diluted compounds for two hours. It makes 1× of compounds in 100 μL media. This was followed by stimulation of cells with 11×IGF1 for 30 min in 10 μL of serum-free EMEM media at the final concentration of 200 ng/mL.
The media was removed and replaced by 50 μL of 1× lysis buffer from the AlphaLISA kit (with 1× of cOmplete™ protease inhibitor). The plates were sealed, and cells were allowed to lyse for 10 min in the shaker before storing the plate at −20° C. until used. The AlphaLISA assay with processed cell lysates were performed as described in the protocol. Briefly, 10 μL of the undiluted sample were loaded to 384 well Optiplates and 5 μL of the acceptor mix (as described in the AlphaLISA kit) was added to each well. The plates were sealed and briefly vortexed followed by the incubation at RT for 3 hours. In the dark, 5 μL of donor mix was added to each well. All plates were sealed and stored at RT overnight. The plates were read in EnVision reader using standard AlphaLISA settings.
Compound activity was analyzed using CBIS data analysis suite (Cheminnovation, CA). Percentage inhibition was calculated using the following formula: % I-hibition=100%×(1−(mea−RLU of test sample−mean RLU of vehicle control)/(mean-RLU of EC80 control−mean RLU of vehicle control)). The activity for representative examples of the invention is shown in the following table, wherein A: IC50≤500 nM; B: 500 nM<IC50≤2 μM; C: 2 μM<IC50≤10 μM; D: IC50>10 μM.

T1 sequence (P08069 31-1367): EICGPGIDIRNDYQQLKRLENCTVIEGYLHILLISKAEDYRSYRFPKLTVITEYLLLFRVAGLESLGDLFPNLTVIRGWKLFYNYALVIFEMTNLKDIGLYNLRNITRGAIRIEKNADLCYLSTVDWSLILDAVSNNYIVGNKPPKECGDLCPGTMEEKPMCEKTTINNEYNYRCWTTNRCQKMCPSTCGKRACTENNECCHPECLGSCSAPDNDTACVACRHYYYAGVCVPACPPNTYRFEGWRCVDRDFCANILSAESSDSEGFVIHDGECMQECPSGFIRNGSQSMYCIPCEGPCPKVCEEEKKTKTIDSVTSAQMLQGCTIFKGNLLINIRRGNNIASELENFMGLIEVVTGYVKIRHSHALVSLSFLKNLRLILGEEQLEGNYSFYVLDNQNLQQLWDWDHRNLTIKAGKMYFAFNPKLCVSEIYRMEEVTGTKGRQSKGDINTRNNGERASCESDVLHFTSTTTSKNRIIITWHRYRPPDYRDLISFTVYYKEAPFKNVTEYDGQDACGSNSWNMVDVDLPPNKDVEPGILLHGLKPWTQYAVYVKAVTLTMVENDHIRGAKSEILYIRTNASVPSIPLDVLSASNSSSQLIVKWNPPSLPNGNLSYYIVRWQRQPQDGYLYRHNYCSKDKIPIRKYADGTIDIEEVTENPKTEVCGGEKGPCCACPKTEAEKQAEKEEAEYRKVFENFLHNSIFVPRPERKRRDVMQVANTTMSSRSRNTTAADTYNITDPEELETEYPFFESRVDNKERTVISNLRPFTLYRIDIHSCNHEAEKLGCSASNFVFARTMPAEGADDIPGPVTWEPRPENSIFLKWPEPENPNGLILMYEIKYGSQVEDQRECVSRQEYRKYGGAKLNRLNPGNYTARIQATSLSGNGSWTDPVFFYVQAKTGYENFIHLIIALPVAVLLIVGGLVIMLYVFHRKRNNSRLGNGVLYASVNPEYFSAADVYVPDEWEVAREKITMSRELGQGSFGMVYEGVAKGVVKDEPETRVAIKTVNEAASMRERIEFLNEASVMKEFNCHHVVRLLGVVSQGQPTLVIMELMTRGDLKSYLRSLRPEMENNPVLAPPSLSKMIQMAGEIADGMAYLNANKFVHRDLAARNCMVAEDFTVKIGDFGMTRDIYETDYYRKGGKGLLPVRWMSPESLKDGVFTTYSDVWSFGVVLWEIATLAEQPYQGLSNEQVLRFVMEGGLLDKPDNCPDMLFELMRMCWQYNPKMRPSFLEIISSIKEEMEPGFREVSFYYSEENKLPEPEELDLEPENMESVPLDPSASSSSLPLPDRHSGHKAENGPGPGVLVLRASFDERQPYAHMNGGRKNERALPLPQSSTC

For `CC1(C)C(=O)N(c2ccc(SC(F)(F)F)cc2)C(=O)N1Cc1cccc(Nc2c(Nc3ccccc3)c(=O)c2=O)n1` [Compound 367, 1-((6-((3,4-dioxo-2-(phenylamino)cyclobut-1-en-1-yl)amino)pyridin-2-yl)methyl)-5,5-dimethyl-3-(4-((trifluoromethyl)thio)phenyl) imidazolidine-2,4-dione], the IC50 is 500 to 2000 nM.
With `CC1(C)C(=O)N(c2ccc(C(C)(C)C(F)(F)F)cc2)C(=O)N1Cc1ccnc(N)c1` [Compound 95, 1-((2-aminopyridin-4-yl)methyl)-5,5-dimethyl-3-(4-(1,1,1-trifluoro-2-methylpropan-2-yl)phenyl)imidazolidine-2,4-dione], the IC50 was at most 500 nM.
As to `CC1(C)C(=O)N(c2ccc(SC(F)(F)F)cc2)C(=O)N1Cc1ccnc2[nH]cnc12` [Compound 2, 1-((3H-imidazo[4,5-b]pyridin-7-yl)methyl)-5,5-dimethyl-3-(4-((trifluoromethyl)thio)phenyl)imidazolidine-2,4-dione], the IC50 was at most 500 nM.
For `CC1(C)C(=O)N(c2ccc(SC(F)(F)F)cc2)C(=O)N1Cc1ccnc(NCc2ncc[nH]2)c1` [Compound 312, 1-((2-(((1H-imidazol-2-yl)methyl)amino)pyridin-4-yl)methyl)-5,5-dimethyl-3-(4-((trifluoromethyl)thio)phenyl) imidazolidine-2,4-dione], the IC50 lay within 500 to 2000 nM.
Take `CC1(C)C(=O)N(c2ccc3c(C(F)(F)F)n[nH]c3c2)C(=O)N1Cc1ccnc(N)c1` [Compound 254, 1-((2-aminopyridin-4-yl)methyl)-5,5-dimethyl-3-(3-(trifluoromethyl)-1H-indazol-6-yl)imidazolidine-2,4-dione]: the IC50 was in the range of 500 to 2000 nM.
As to `Nc1cc(CN2C(=O)N(c3ccc(SC(F)(F)F)cc3)C(=O)C23CCCCC3)ccn1` [Compound 293, 1-((2-aminopyridin-4-yl)methyl)-3-(4-((trifluoromethyl)thio)phenyl)-1,3-diazaspiro[4.5]decane-2,4-dione], the IC50 lay in the range of 2000 to 10000 nM.
In the case of `CC1(C)CC(Nc2cc(CN3C(=O)N(c4ccc(C5(C(F)(F)F)CC5)cc4)C(=O)C3(C)C)ccn2)CCO1` (stereo not drawn) [Compound 113, 1-((2-((2,2-dimethyltetrahydro-2H-pyran-4-yl)amino)pyridin-4-yl)methyl)-5,5-dimethyl-3-(4-(1-(trifluoromethyl)cyclopropyl)phenyl) imidazolidine-2,4-dione], the IC50 is at most 500 nM.
Take `CC1(C)C(=O)N(c2ccc(SC(F)(F)F)cc2)C(=O)N1Cc1ccnc(NC(=O)NC2COC2)c1` [Compound 308, 1-(4-((5,5-dimethyl-2,4-dioxo-3-(4-((trifluoromethyl)thio)phenyl)imidazolidin-1-yl)methyl)pyridin-2-yl)-3-(oxetan-3-yl)urea]: the concentration for half-maximal inhibition (IC50) is at most 500 nM.
Consider `CC(C)Nc1cc(CN2C(=O)N(c3ccc(C45CC(C4)C5)cc3)C(=O)C2(C)C)ccn1` [Compound 117, 3-(4-(bicyclo[1.1.1]pentan-1-yl)phenyl)-1-((2-(isopropylamino)pyridin-4-yl)methyl)-5,5-dimethylimidazolidine-2,4-dione], for which the IC50 was at most 500 nM.
As to `CC(C)[C@H]1C(=O)N(c2ccc(SC(F)(F)F)cc2)C(=O)N1Cc1ccnc(N)c1` [Compound 290, (S)-1-((2-aminopyridin-4-yl)methyl)-5-isopropyl-3-(4-((trifluoromethyl)thio)phenyl)imidazolidine-2,4-dione], the IC50 was above 10000 nM.
For `CC1(C)C(=O)N(c2ccc(SC(F)(F)F)cc2)C(=O)N1Cc1ccnc(NC2CCCC2)c1` [Compound 369, 1-((2-(cyclopentylamino)pyridin-4-yl)methyl)-5,5-dimethyl-3-(4-((trifluoromethyl)thio)phenyl) imidazolidine-2,4-dione], the IC50 is at most 500 nM.
The value for `CC1(C)C(=O)N(c2ccc(SC(F)(F)F)cc2)C(=O)N1Cc1ccnc(NC2COC2)c1` [Compound 314, 5,5-dimethyl-1-((2-(oxetan-3-ylamino)pyridin-4-yl)methyl)-3-(4-((trifluoromethyl)thio)phenyl) imidazolidine-2,4-dione] was above 10000 nM.

As a reminder, the IC50 is the point on the concentration scale where inhibition reaches its midpoint.
